Measured values published in PubChem BioAssay AID2060499 (Molecular Pharmacology Branch, DTP, NCI, 2025).

Test system: 777334-354-R2-J4-PDC tumor spheroids with HUVEC/MSC, viability
Assay: Anticancer human tumor 777334-354-R2-J4-PDC patient-derived pancreatic adenocarcinoma cell line growth inhibition [GQUAD]
Settings: for IC50: curve of first compound; for viability, T/C: stronger effect = lower value
Outline: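 Viability of tumor cells grown as complex spheroids with endothelial and stromal cells, exposed to drug combinations. Top concentration at or near clinical Cmax (else 10 microM), diluted in half-log increments.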

[1] = second compound 0.0316 µM, first compound 0.0316 µM
[2] = second compound 0.0316 µM, first compound 0.1 µM
[3] = second compound 0.0316 µM, first compound 0.316 µM
[4] = second compound 0.0316 µM, first compound 1 µM
[5] = second compound 0.0316 µM, first compound 3.16 µM
[6] = second compound 0.0316 µM, first compound 10 µM
[7] = second compound 0.1 µM, first compound 0.0316 µM
[8] = second compound 0.1 µM, first compound 0.1 µM
[9] = second compound 0.1 µM, first compound 0.316 µM
[10] = second compound 0.1 µM, first compound 1 µM
[11] = second compound 0.1 µM, first compound 3.16 µM
[12] = second compound 0.1 µM, first compound 10 µM
[13] = second compound 0.316 µM, first compound 0.0316 µM
[14] = second compound 0.316 µM, first compound 0.1 µM
[15] = second compound 0.316 µM, first compound 0.316 µM
[16] = second compound 0.316 µM, first compound 1 µM
[17] = second compound 0.316 µM, first compound 3.16 µM
[18] = second compound 0.316 µM, first compound 10 µM
[19] = second compound 1 µM, first compound 0.0316 µM
[20] = second compound 1 µM, first compound 0.1 µM
[21] = second compound 1 µM, first compound 0.316 µM
[22] = second compound 1 µM, first compound 1 µM
[23] = second compound 1 µM, first compound 3.16 µM
[24] = second compound 1 µM, first compound 10 µM
[25] = second compound 3.16 µM, first compound 0.0316 µM
[26] = second compound 3.16 µM, first compound 0.1 µM
[27] = second compound 3.16 µM, first compound 0.316 µM
[28] = second compound 3.16 µM, first compound 1 µM
[29] = second compound 3.16 µM, first compound 3.16 µM
[30] = second compound 3.16 µM, first compound 10 µM
[31] = second compound 10 µM, first compound 0.0316 µM
[32] = second compound 10 µM, first compound 0.1 µM
[33] = second compound 10 µM, first compound 0.316 µM
[34] = second compound 10 µM, first compound 1 µM
[35] = second compound 10 µM, first compound 3.16 µM
[36] = second compound 10 µM, first compound 10 µM
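Note: spheroids exposed to compounds for 7 days before readout.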

In the case of `C=CCn1c(=O)c2cnc(Nc3ccc(N4CCN(C)CC4)cc3)nc2n1-c1cccc(C(C)(C)O)n1` + CN(C)c1ccc(Nc2c3ccc(NC(=O)CCN4CCCC4)cc3nc3cc(NC(=O)CCN4CCCC4)ccc23)cc1, the IC50 (second compound 0.0316 µM) is reported as 746 nM, the IC50 (second compound 0.1 µM) is reported as 907 nM and the IC50 (second compound 0.316 µM) is reported as 961 nM. For the same compound, the IC50 (second compound 1 µM) was 793 nM, the IC50 (second compound 3.16 µM) was 732 nM and the IC50 (second compound 10 µM) was 576 nM. The viability, T/C [1] was 101%, the viability, T/C [2] was 94.8% and the viability, T/C [3] was 81.6%. It also gave a viability, T/C [4] of 38.8%, a viability, T/C [5] of 36.5% and a viability, T/C [6] of 37.6%. For the same compound, the viability, T/C [7] was 103%, the viability, T/C [8] was 91.1% and the viability, T/C [9] was 84.6%. It also gave a viability, T/C [10] of 46.1%, a viability, T/C [11] of 36.8% and a viability, T/C [12] of 35.9%. The viability, T/C [13] was 105%, the viability, T/C [14] was 89.8% and the viability, T/C [15] was 77.2%. For the same compound, the viability, T/C [16] was 45.9%, the viability, T/C [17] was 38.4% and the viability, T/C [18] was 33.9%. For the same compound, the viability, T/C [19] was 87%, the viability, T/C [20] was 82.5% and the viability, T/C [21] was 78%. For the same compound, the viability, T/C [22] was 42.8%, the viability, T/C [23] was 38.9% and the viability, T/C [24] was 35.2%. It also gave a viability, T/C [25] of 92.9%, a viability, T/C [26] of 81.4% and a viability, T/C [27] of 68%. It also gave a viability, T/C [28] of 41%, a viability, T/C [29] of 39.2% and a viability, T/C [30] of 33.2%. It also gave a viability, T/C [31] of 90.1%, a viability, T/C [32] of 81.7% and a viability, T/C [33] of 59.3%. The viability, T/C [34] was 39.8%, the viability, T/C [35] was 34.1% and the viability, T/C [36] was 25.1%.

`CC(C)(O)C1CCC(Nc2ccc3ncc(-c4cccc(C(F)(F)F)c4)n3n2)CC1` (stereo not drawn) + CN(C)c1ccc(Nc2c3ccc(NC(=O)CCN4CCCC4)cc3nc3cc(NC(=O)CCN4CCCC4)ccc23)cc1 showed an IC50 (second compound 0.0316 µM) of 849 nM, an IC50 (second compound 0.1 µM) of 921 nM and an IC50 (second compound 0.316 µM) of 1340 nM. The IC50 (second compound 1 µM) was 1340 nM, the IC50 (second compound 3.16 µM) was 1060 nM and the IC50 (second compound 10 µM) was 669 nM. It also gave a viability, T/C [1] of 99.9%, a viability, T/C [2] of 90.2% and a viability, T/C [3] of 90.2%. The viability, T/C [4] was 43.4%, the viability, T/C [5] was 32.3% and the viability, T/C [6] was 35.5%. The viability, T/C [7] was 98.2%, the viability, T/C [8] was 86.5% and the viability, T/C [9] was 81.4%. For the same compound, the viability, T/C [10] was 47.4%, the viability, T/C [11] was 31.3% and the viability, T/C [12] was 31.5%. It also gave a viability, T/C [13] of 89%, a viability, T/C [14] of 68.1% and a viability, T/C [15] of 79.7%. The viability, T/C [16] was 55%, the viability, T/C [17] was 36.6% and the viability, T/C [18] was 33.9%. It also gave a viability, T/C [19] of 78.9%, a viability, T/C [20] of 89.9% and a viability, T/C [21] of 81.4%. The viability, T/C [22] was 56.3%, the viability, T/C [23] was 29.6% and the viability, T/C [24] was 33.3%. It also gave a viability, T/C [25] of 76.8%, a viability, T/C [26] of 82.3% and a viability, T/C [27] of 80.5%. For the same compound, the viability, T/C [28] was 51.2%, the viability, T/C [29] was 27.9% and the viability, T/C [30] was 27%. The viability, T/C [31] was 83.9%, the viability, T/C [32] was 77.2% and the viability, T/C [33] was 67.8%. It also gave a viability, T/C [34] of 41.6%, a viability, T/C [35] of 19.1% and a viability, T/C [36] of 19.4%.

`Cc1[nH]c2ccccc2c1CCNCc1ccc(/C=C/C(=O)NO)cc1` + CN(C)c1ccc(Nc2c3ccc(NC(=O)CCN4CCCC4)cc3nc3cc(NC(=O)CCN4CCCC4)ccc23)cc1 showed an IC50 (second compound 0.0316 µM) of 202 nM, an IC50 (second compound 0.1 µM) of 185 nM and an IC50 (second compound 0.316 µM) of 220 nM. For the same compound, the IC50 (second compound 1 µM) was 214 nM, the IC50 (second compound 3.16 µM) was 175 nM and the IC50 (second compound 10 µM) was 104 nM. It also gave a viability, T/C (second compound 0.0316 µM, first compound 0.000999 µM) of 104%, a viability, T/C (second compound 0.0316 µM, first compound 0.00316 µM) of 83.1% and a viability, T/C (second compound 0.0316 µM, first compound 0.00999 µM) of 97.8%. For the same compound, the viability, T/C [1] was 90.5%, the viability, T/C (second compound 0.0316 µM, first compound 0.0999 µM) was 75.8% and the viability, T/C [3] was 33.4%. It also gave a viability, T/C (second compound 0.1 µM, first compound 0.000999 µM) of 108%, a viability, T/C (second compound 0.1 µM, first compound 0.00316 µM) of 84.8% and a viability, T/C (second compound 0.1 µM, first compound 0.00999 µM) of 103%. The viability, T/C [7] was 86.2%, the viability, T/C (second compound 0.1 µM, first compound 0.0999 µM) was 73.2% and the viability, T/C [9] was 30.8%. For the same compound, the viability, T/C (second compound 0.316 µM, first compound 0.000999 µM) was 92.3%, the viability, T/C (second compound 0.316 µM, first compound 0.00316 µM) was 88.4% and the viability, T/C (second compound 0.316 µM, first compound 0.00999 µM) was 99.5%. For the same compound, the viability, T/C [13] was 88.9%, the viability, T/C (second compound 0.316 µM, first compound 0.0999 µM) was 79.6% and the viability, T/C [15] was 36.4%. The viability, T/C (second compound 1 µM, first compound 0.000999 µM) was 84.8%, the viability, T/C (second compound 1 µM, first compound 0.00316 µM) was 86.9% and the viability, T/C (second compound 1 µM, first compound 0.00999 µM) was 88.3%. The viability, T/C [19] was 79%, the viability, T/C (second compound 1 µM, first compound 0.0999 µM) was 71.9% and the viability, T/C [21] was 38.9%. It also gave a viability, T/C (second compound 3.16 µM, first compound 0.000999 µM) of 90.6%, a viability, T/C (second compound 3.16 µM, first compound 0.00316 µM) of 86.9% and a viability, T/C (second compound 3.16 µM, first compound 0.00999 µM) of 89%. The viability, T/C [25] was 79.5%, the viability, T/C (second compound 3.16 µM, first compound 0.0999 µM) was 66.1% and the viability, T/C [27] was 33.5%. The viability, T/C (second compound 10 µM, first compound 0.000999 µM) was 77%, the viability, T/C (second compound 10 µM, first compound 0.00316 µM) was 80.1% and the viability, T/C (second compound 10 µM, first compound 0.00999 µM) was 80.6%. For the same compound, the viability, T/C [31] was 70.4%, the viability, T/C (second compound 10 µM, first compound 0.0999 µM) was 51.2% and the viability, T/C [33] was 26.4%.

Compound `O=C(NO)c1cnc(N2CCN(S(=O)(=O)c3ccc4ccccc4c3)CC2)nc1` + CN(C)c1ccc(Nc2c3ccc(NC(=O)CCN4CCCC4)cc3nc3cc(NC(=O)CCN4CCCC4)ccc23)cc1 has an IC50 (second compound 0.0316 µM) of 926 nM, an IC50 (second compound 0.1 µM) of 1290 nM and an IC50 (second compound 0.316 µM) of 1070 nM. The IC50 (second compound 1 µM) was 852 nM, the IC50 (second compound 3.16 µM) was 954 nM and the IC50 (second compound 10 µM) was 1010 nM. For the same compound, the viability, T/C [1] was 103%, the viability, T/C [2] was 89.5% and the viability, T/C [3] was 79.4%. It also gave a viability, T/C [4] of 50.8%, a viability, T/C [5] of 11.1% and a viability, T/C [6] of 0.3%. The viability, T/C [7] was 91.5%, the viability, T/C [8] was 90.6% and the viability, T/C [9] was 83.5%. The viability, T/C [10] was 62.3%, the viability, T/C [11] was 8.7% and the viability, T/C [12] was 1.67%. For the same compound, the viability, T/C [13] was 86.8%, the viability, T/C [14] was 94.7% and the viability, T/C [15] was 76.6%. For the same compound, the viability, T/C [16] was 54.8%, the viability, T/C [17] was 10.9% and the viability, T/C [18] was 2.03%. For the same compound, the viability, T/C [19] was 84.3%, the viability, T/C [20] was 80.8% and the viability, T/C [21] was 62.5%. For the same compound, the viability, T/C [22] was 54.2%, the viability, T/C [23] was 12% and the viability, T/C [24] was 0.73%. The viability, T/C [25] was 86.3%, the viability, T/C [26] was 72.1% and the viability, T/C [27] was 65.9%. The viability, T/C [28] was 54%, the viability, T/C [29] was 10.9% and the viability, T/C [30] was 0.96%. The viability, T/C [31] was 66%, the viability, T/C [32] was 65.3% and the viability, T/C [33] was 63.1%. For the same compound, the viability, T/C [34] was 50.4%, the viability, T/C [35] was 11.1% and the viability, T/C [36] was 0.95%.
